Results on 10 molecules are retold here after ChEMBL document CHEMBL3585288, “Synthesis, characterization and evaluation of the substituent effect on the amoebicide activity of new hydrazone derivatives” (Medchemcomm, 2014).

The IC50 is the concentration needed to halve the response being measured.

For the first test, the system named is Entamoeba histolytica. The experiment in a line: Amoebicidal activity against trophozoite stage of Entamoeba histolytica HM-1:IMSS assessed as growth inhibition after 72 hrs by carboxyfluorescein diacetate/propidium iodide staining-based fluorescence microscopic analysis. Format: functional, organism-based.
Consider `C(=N\N=C\c1ccccc1)/c1ccccc1`, for which the IC50 was found to be 96 µM.
Consider `Cc1ncc([N+](=O)[O-])n1CCO` [METRONIDAZOLE], for which the IC50 came to 6.8 µM.
On the same count and under the same terms, the value for `O=[N+]([O-])c1ccc(-c2ccc(/C=N/N=C/c3ccc(-c4ccc([N+](=O)[O-])cc4)o3)o2)cc1` was 13 µM; that for `O=C(/C(=N/N=C(/C(=O)c1ccccc1)c1ccccc1)c1ccccc1)c1ccccc1` was 18 µM; that for `O=[N+]([O-])c1cccc(/C=N/N(c2ccccc2)c2ccccc2)c1` was 19 µM.
For `O=[N+]([O-])c1ccc(-c2ccc(/C=N/Nc3ccccc3)o2)cc1`, the IC50 turned out to be 0.98 µM.
On to `O=[N+]([O-])c1ccc(-c2ccc(/C=N/N(c3ccccc3)c3ccccc3)o2)cc1`, for which the IC50 came out at 16 µM.
For the molecule `C(=N\N(c1ccccc1)c1ccccc1)/c1cccs1`, the IC50 is 7.6 µM.
Still for that read-out and setting: for `C(=N\Nc1ccccc1)/c1ccco1` the value was 120 µM.
Same read-out and setting: the value for `C(=N\N(c1ccccc1)c1ccccc1)/c1ccccc1` was 78 µM.

The next test deals with Entamoeba histolytica. The experiment in a line: Potency index, ratio of metronidazole IC50 to compound IC50 for trophozoite stage of Entamoeba histolytica HM-1:IMSS. In kind it is functional.
`O=[N+]([O-])c1ccc(-c2ccc(/C=N/Nc3ccccc3)o2)cc1`: the “Ratio IC50” value was determined as 7.
